We go through one compound from patent US20060106107A1, “L-tartrate salt of N-1-Adamantyl-2-{3-[(2R)-2-({(2R)-2-hydroxy-2-[4-hydroxy-3-(hydroxymethyl)phenyl]ethyl}amino)propyl] phenyl}acetamide” (priority 2004, published 2006).

Each structure is given as a SMILES string.

The assay deals with T1, human β2 adrenergic receptor (Homo sapiens, UniProt P07550).
T1 construct: expressed in transfected cells; host or cells: CHO (Chinese Hamster Ovary) cells, CHOhβ2
The assay can be described thus: cAMP Flashplate assay in CHO cells recombinantly expressing the human β2 adrenergic receptor (agonist potency). It counts as cell-based. The note with it: CHOhβ2 cells, 1 hour incubation, 125I-cAMP Flashplate; data expressed as % Isoprenaline activity, four parameter sigmoid fit. Here is the method: According to another alternative, the agonist potency for the β2 receptor of the L-tartrate salt of the invention may also be determined by the measure of the concentration of compound according to the present invention required to produce half maximal effect (EC50) for the β2 receptor.
10 mM/100% DMSO (dimethylsulfoxide) stock of compound is diluted to required top dose in 4% DMSO. This top dose is used to construct a 10-point semi-log dilution curve, all in 4% DMSO. Isoprenaline (Sigma, I-5627) was used as a standard in every experiment and for control wells on each plate. Data was expressed as % Isoprenaline response. […]
25 μl/well each dose of compound was transferred into a cAMP-Flashplate® (NEN, SMP004B), with 1% DMSO as basal controls and 100 nM Isoprenaline as max controls. […] The amount of ^125I-cAMP bound to the Flashplate® was quantified using a Topcount NXT (Packard), normal counting efficiency for 1 minute. Dose-response data was expressed as % Isoprenaline activity and fitted using a four parameter sigmoid fit.

Usually EC50 stands for the midpoint of the concentration-response curve.

T1 sequence (P07550 whole entry): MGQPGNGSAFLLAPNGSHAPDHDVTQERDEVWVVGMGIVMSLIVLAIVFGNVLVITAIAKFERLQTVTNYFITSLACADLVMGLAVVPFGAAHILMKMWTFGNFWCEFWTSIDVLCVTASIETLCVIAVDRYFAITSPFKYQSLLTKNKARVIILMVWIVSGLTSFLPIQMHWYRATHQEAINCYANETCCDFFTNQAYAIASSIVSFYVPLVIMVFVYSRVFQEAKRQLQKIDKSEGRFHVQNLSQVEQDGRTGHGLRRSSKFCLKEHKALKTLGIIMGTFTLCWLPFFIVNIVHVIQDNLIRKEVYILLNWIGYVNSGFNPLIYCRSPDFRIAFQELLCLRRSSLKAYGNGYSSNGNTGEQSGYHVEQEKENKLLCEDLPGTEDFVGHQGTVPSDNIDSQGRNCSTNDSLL

In the case of `C[C@H](Cc1cccc(CC(=O)NC23CC4CC(CC(C4)C2)C3)c1)NC[C@H](O)c1ccc(O)c(CO)c1` [example 1, N-1-Adamantyl-2-{3-[(2R)-2-({(2R)-2-hydroxy-2-[4-hydroxy-3-(hydroxymethyl)phenyl]ethyl}amino)propyl]phenyl}acetamide L-tartrate], the EC50 is 0.076 nM.
